Results: ChEMBL document CHEMBL3739363, “Discovery of bisindolyl-substituted cycloalkane-anellated indoles as novel class of antibacterial agents against S. aureus and MRSA” (2016)
≈ marks a conversion by molar mass, not a printed value.

Key:
Assay type in all cases: functional
Staphylococcus aureus [1] = assay: Antibacterial activity against Staphylococcus aureus ATCC 25923 by two-fold serial dilution method
Staphylococcus aureus [2] = assay: Antibacterial activity against clinical isolate methicillin-resistant Staphylococcus aureus by two-fold serial dilution method
Staphylococcus aureus [3] = assay: Antibacterial activity against methicillin-resistant Staphylococcus aureus ATCC 43300 by two-fold serial dilution method

Compound	MIC (Staphylococcus aureus [1]) [µg/mL]	MIC (Staphylococcus aureus [2]) [µg/mL]	MIC (Staphylococcus aureus [3]) [µg/mL]
BrC1[C@@H](c2c[nH]c3ccccc23)c2[nH]c3ccccc3c2[C@@H]1c1c[nH]c2ccccc12 (relative stereo)	3.12 (≈ 6.7 µM)	6.25 (≈ 13.4 µM)	3.12 (≈ 6.7 µM)
Clc1ccc2[nH]cc([C@@H]3CCC[C@@H](c4c[nH]c5ccc(Cl)cc45)c4c3[nH]c3ccc(Cl)cc43)c2c1 (relative stereo)	3.12 (≈ 6.02 µM)	6.25 (≈ 12 µM)	6.25 (≈ 12 µM)
c1ccc2c([C@@H]3CCCC[C@@H](c4c[nH]c5ccccc45)c4c3[nH]c3ccccc43)c[nH]c2c1 (relative stereo)	3.12 (≈ 7.27 µM)	12.5 (≈ 29.1 µM)	6.25 (≈ 14.5 µM)
CC1(C)S[C@@H]2[C@H](NC(=O)[C@H](N)c3ccccc3)C(=O)N2[C@H]1C(=O)O [AMPICILLIN]	1.56 (≈ 4.46 µM)	50 (≈ 143 µM)	50 (≈ 143 µM)
ClC1[C@@H](c2c[nH]c3ccccc23)c2[nH]c3ccccc3c2[C@@H]1c1c[nH]c2ccccc12 (relative stereo)	3.12 (≈ 7.41 µM)	6.25 (≈ 14.8 µM)	3.12 (≈ 7.41 µM)
CC1(C)S[C@@H]2[C@H](NC(=O)[C@@H](N)c3ccccc3)C(=O)N2[C@H]1C(=O)OCOC(=O)[C@@H]1N2C(=O)C[C@H]2S(=O)(=O)C1(C)C	0.78 (≈ 1.31 µM)	25 (≈ 42 µM)	25 (≈ 42 µM)
CC(=O)n1cc([C@H]2CCC[C@@H](c3cn(C(=O)O)c4ccccc34)c3[nH]c4ccccc4c32)c2ccccc21 (relative stereo)	100 (≈ 199 µM)	50 (≈ 99.7 µM)	50 (≈ 99.7 µM)
c1ccc2c([C@@H]3CCC[C@@H](c4c[nH]c5ccccc45)c4c3[nH]c3ccccc43)c[nH]c2c1 (relative stereo)	3.12 (≈ 7.52 µM)	12.5 (≈ 30.1 µM)	6.25 (≈ 15 µM)
CC(=O)n1cc([C@H]2CC[C@@H](c3cn(C(C)=O)c4ccccc34)c3c2c2ccccc2n3C(C)=O)c2ccccc21 (relative stereo)	50 (≈ 94.8 µM)	50 (≈ 94.8 µM)	50 (≈ 94.8 µM)
CC(=O)n1cc([C@H]2CCC[C@@H](c3c[nH]c4ccccc34)c3[nH]c4ccccc4c32)c2ccccc21 (relative stereo)	25 (≈ 54.6 µM)	12.5 (≈ 27.3 µM)	12.5 (≈ 27.3 µM)
c1ccc2c([C@@H]3CC[C@@H](c4c[nH]c5ccccc45)c4c3[nH]c3ccccc43)c[nH]c2c1 (relative stereo)	3.12 (≈ 7.78 µM)	6.25 (≈ 15.6 µM)	3.12 (≈ 7.78 µM)
CC(=O)n1cc([C@@H]2CC[C@H](c3cn(C(C)=O)c4ccccc34)c3c2[nH]c2ccccc32)c2ccccc21 (relative stereo)	100 (≈ 206 µM)	100 (≈ 206 µM)	100 (≈ 206 µM)
Clc1ccc2[nH]cc([C@@H]3CC[C@@H](c4c[nH]c5ccc(Cl)cc45)c4c3[nH]c3ccc(Cl)cc43)c2c1 (relative stereo)	3.12 (≈ 6.19 µM)	12.5 (≈ 24.8 µM)	6.25 (≈ 12.4 µM)
Clc1ccc2c([C@@H]3CCC[C@@H](c4c[nH]c5cc(Cl)ccc45)c4c3[nH]c3cc(Cl)ccc43)c[nH]c2c1 (relative stereo)	3.12 (≈ 6.02 µM)	12.5 (≈ 24.1 µM)	6.25 (≈ 12 µM)
Clc1ccc2c([C@@H]3CC[C@@H](c4c[nH]c5cc(Cl)ccc45)c4c3[nH]c3cc(Cl)ccc43)c[nH]c2c1 (relative stereo)	12.5 (≈ 24.8 µM)	12.5 (≈ 24.8 µM)	12.5 (≈ 24.8 µM)
c1ccc2c([C@@H]3C[C@@H](c4c[nH]c5ccccc45)c4c3[nH]c3ccccc43)c[nH]c2c1 (relative stereo)	50 (≈ 129 µM)	12.5 (≈ 32.3 µM)	12.5 (≈ 32.3 µM)
